Paper PMC7714071, “Interaction of amyloid beta with humanin and acetylcholinesterase is modulated by ATP” (FEBS Open Bio, 2020)

Columns and labels:
[1] = ELISA, binding of biotinylated-Aβ to immobilised HS; set-up: species or system bovine; settings: HS 100 nM on wells, increasing biotinylated-Aβ; single binding site model; mean ± SD of three independent experiments in triplicate; Fig. 2A
Method: ELISAs were carried out as we previously reported. Nunc MaxiSorp 96‐well flat bottom plate (Thermo Fisher) wells were coated with samples as indicated. The plates were incubated overnight at 4 °C on a shaker to allow binding of the samples to the plate wells. After the incubation, the wells were washed 4× with TBST, filled with 400 µL blocking buffer (110 mM KCl, 5 mM NaHCO3, 5 mM MgCl2, 1 mM EGTA, 0.1 mM CaCl2, 20 mM HEPES, 1% BSA, pH 7.4), and incubated with shaking overnight at 4 °C. The wells were then washed 4× with TBST, and 100 µL of sample at the desired concentration was added to each well and incubated with shaking overnight at 4 °C. TBST was then used to wash the wells 4× before proceeding in one of two ways: (a) biotinylated samples were analyzed by adding 100 µL streptavidin–HRP conjugate in TBST (1 : 2500 dilution) to the samples followed by incubation for 3 h at RT on a shaker, or (b) samples without biotin were analyzed by adding 100 µL TBST containing the primary antibody as per the manufacturer's recommendation, incubating for 3 h at RT on a shaker, followed by washing the wells 4× with TBST. […] The reaction was stopped with 100 µL 2 M H2SO4 after incubating at RT for 0.5–15 min, resulting in a yellow color change, measured by absorbance at 450 nm. […] Statistical analysis was determined by the […] […] Data were expressed as the mean ± SD. […]

[2] = tested on: Aβ40; settings: versus Aβ42; cited from earlier work
From the text: Almost all types of cells produce amyloid beta (Aβ), a peptide well recognized for its role in the development and progression of different stages of Alzheimer's disease (AD). The Aβ peptide is ~ 4 kDa and derived from the sequential processing of the higher molecular weight amyloid precursor protein by two membrane‐bound endoproteases, β‐ and γ‐secretase. Different C‐terminal Aβ heterogeneity results from processing by γ‐secretase, where Aβ40 represents the most abundant isoform (~ 90%) as compared to Aβ42 (~ 10%). Self‐assembled Aβ40/42 peptides into amyloid fib ... || Humanin (HN) is a secreted 21‐ to 24‐amino acid mitochondrial‐derived peptide. Certain amino acid residues in HN have been identified to be involved in different functions, including binding to Aβ [55, 56]. […] HN was identified previously as a binding partner of Aβ, likely modulating its aggregation pathways and counteracting its deleterious effects. […] The specific epitopes at the binding interface between HN and Aβ40 were identified, by proteolytic epitope excision and extraction in addition to affinity–mass spectrometric data analysis, to be HN (5–15) and Aβ (17–28). […] Inhibiting the 17–28 region of Aβ reduced aggregation of the neurotoxic amyloid fibrils and related cytotoxicity in SH‐SY5Y, a human neuroblastoma cell ... || (+ 1 further places)

[3] = tested on: Aβ cytotoxicity; settings: cited from earlier work
From the text: Almost all types of cells produce amyloid beta (Aβ), a peptide well recognized for its role in the development and progression of different stages of Alzheimer's disease (AD). The Aβ peptide is ~ 4 kDa and derived from the sequential processing of the higher molecular weight amyloid precursor protein by two membrane‐bound endoproteases, β‐ and γ‐secretase. Different C‐terminal Aβ heterogeneity results from processing by γ‐secretase, where Aβ40 represents the most abundant isoform (~ 90%) as compared to Aβ42 (~ 10%). Self‐assembled Aβ40/42 peptides into amyloid fib ... || Soluble oligomers of proteins implicated in different diseases are primarily thought to be the main toxic form as opposed to the larger fibrillar assemblies. Aβ regions containing Tyr and Ser (H6DSGY10 and G25SNKG29) (Fig. 1) along with post‐translational modifications of these regions, have been implicated in misfolding, oligomerization, or fibril formation of Aβ [5, 10, 11, 16, 41]. […] Aβ proteins a ... || Acetylcholinesterase (AChE) is an enzyme known for its role in terminating acetylcholine‐mediated neurotransmission at the synaptic cleft. The majority of the cortical AChE in the Alzheimer's brain is mainly associated with the amyloid core of senile plaques. […]

[4] = tested on: Aβ; settings: physiological intracellular concentrations, enhanced by magnesium; cited from earlier work
From the text: Soluble oligomers of proteins implicated in different diseases are primarily thought to be the main toxic form as opposed to the larger fibrillar assemblies. Aβ regions containing Tyr and Ser (H6DSGY10 and G25SNKG29) (Fig. 1) along with post‐translational modifications of these regions, have been implicated in misfolding, oligomerization, or fibril formation of Aβ [5, 10, 11, 16, 41]. […] In addition to ATP, the glycosaminoglycan, heparan sulfate (HS), has been previously reported to i ... || Access to the central domain of Aβ (residues 17–24) flanked by Lys‐16 and Lys‐28, known to be a critical structural element in fibrillar Aβ aggregates, might be regulated by binding of AChE and HN to their overlapping binding sites on Aβ. […] Moreover, we s ...

[5] = tested on: Aβ42; settings: in brains of AD patients; cited from earlier work
From the text: Almost all types of cells produce amyloid beta (Aβ), a peptide well recognized for its role in the development and progression of different stages of Alzheimer's disease (AD). The Aβ peptide is ~ 4 kDa and derived from the sequential processing of the higher molecular weight amyloid precursor protein by two membrane‐bound endoproteases, β‐ and γ‐secretase. Different C‐terminal Aβ heterogeneity results from processing by γ‐secretase, where Aβ40 represents the most abundant isoform (~ 90%) as compared to Aβ42 (~ 10%). Self‐assembled Aβ40/42 peptides into amyloid fib ... || Amino acid residues involved in direct interactions between HN and Aβ40 were identified previously by molecular modeling. The specific epitopes at the binding interface between HN and Aβ40 were identified, by proteolytic epitope excision and extraction in addition to affinity–mass spectrometric data analysis, to be HN (5–15) and Aβ (17–28). […] Inhibiting the 17–28 region of Aβ reduced aggregation of the neurotoxic amyloid fibrils and related cytotoxicity in SH‐SY5Y, a human neuroblastoma cell ... || Acetylcholinesterase (AChE) is an enzyme known for its role in terminating acetylcholine‐mediated neurotransmission at the synaptic cleft. The majority of the cortical AChE in the Alzheimer's brain is mainly associated with the amyloid core of senile plaques. […]

[6] = tested on: Aβ in A549 cell-conditioned media; assay: ELISA, oligomer versus total Aβ in A549 cell-conditioned media; type: cell-based, human; settings: non-depleted A549 media; Fig. 8A
Method: (§1) Aβ ELISAs were carried out according to previous protocols for determining the oligomeric and monomeric concentrations of Aβ and as we recently reported. Briefly, total Aβ (monomers + oligomers) was measured by two‐site binding ELISAs using the capture 6E10 monoclonal antibody and 4G8‐conjugated biotin as the detection antibody, which recognizes a distinct epitope, then quantitated using streptavidin‐HRP.
(§2) Using the same samples, oligomerized Aβ was measured by a single‐site ELISA in which antibodies targeting the same primary sequence epitope were used for both capture (4G8) and detection (4G8‐biotin). Only oligomers are detected with this approach since the 4G8‐biotin antibody cannot bind to the captured monomer because the epitope is blocked by the 4G8 capture antibody. Therefore, only oligomeric or multimeric Aβ containing additional exposed 4G8 epitopes, not engaged by the capture antibody, are reported by the streptavidin–HRP. The amount of the monomer was then estimated as the difference between the concentration of total Aβ and the concentration of the oligomer.
(§3) Conditioned media were immunodepleted (ID) according to the methods previously described and our recently published report. Briefly, specific antibodies were bound to ELISA wells overnight (1 : 1000 dilution). The wells were then blocked and washed, then 300 μL of the conditioned medium (0.5 μg·μL^−1) treated as indicated, 72 h postserum starvation, was incubated with the antibodies bound to ELISA wells for 24 h. The ID media were then carefully removed and analyzed for the presence of the target protein or peptide by ELISA. The same amount of protein (3 µL of 600 µg·mL^−1 total protein) of each sample was analyzed in the experiments. Significant depletion (95–100%) was observed upon using each of the antibodies employed in this study.
(§4) Both epitopes recognized by the 6E10 and 4G8 antibodies have been previously shown to be exposed in Aβ aggregates. […] To determine the effect of ID of AChE or HN on this ratio in the absence or presence of added ATP, 0.2 × 10^5 cells per well were seeded in 96‐well plates in 10% FBS‐supplemented media. The next day, the cells were incubated in serum‐free medium for 72 h, then ID of AChE or HN as described in Materials and methods. The antibodies 6E10 or 4G8 were bound (1 : 1000 dilution) to ELISA wells (Fig. 8). The wells were blocked, and then incubated with 300 μL of the ID medium (0.5 μg·μL^−1). Biotin‐4G8 was then added and the signal processed as described in Materials and methods section. Fold change relative to controls using anti‐6E10 or anti‐4G8 antibodies incubated with 300 μL of the medium not incubated with cells was calculated.
(§5) Cells (0.2 × 10^5) were grown in 10% FBS‐supplemented media for 24 h. The cells were then incubated in serum‐free medium for 72 h without or with ATP and the media collected and ID from either HN or AChE as described in Materials and methods section. The antibodies 6E10 or 4G8 were bound (1 : 1000 dilution) to ELISA wells. The wells were blocked, and then incubated with 300 μL of the control and ID medium (0.5 μg·μL^−1). Biotin‐4G8 was then added and the signal processed as described in Materials and methods section. Fold change relative to controls using anti‐6E10 and anti‐4G8 antibodies and 300 μL of the medium not incubated with cells was calculated. Data were processed using the […] 8.4.3 software. The graphs summarize the results expressed as means ± SD of three separate experiments, each performed in triplicate. […]

[7] = tested on: Aβ in H1299 cell-conditioned media; assay: ELISA, oligomer versus total Aβ in H1299 cell-conditioned media; type: cell-based, human; settings: non-depleted H1299 media; Fig. 8B
Method: as §1, §2, §3, §4, §5

[8] = tested on: human lung adenocarcinoma xenografts; settings: direct injection into xenografts; cited from earlier work
From the text: A rapidly growing body of evidence has recently steadily emerged showing that AD patients might have a reduced risk and some protection against certain cancers. […] Experimental evi ...

[9] = tested on: Aβ; settings: cited from earlier work

For Aβ40, the “binding affinity of Aβ for HS” value [1] is listed as “comparable affinities”, the “aggregation kinetics of Aβ40” value [2] is listed as “lower aggregation kinetics” and the “toxicity relative to Aβ42” value [3] is listed as “lower toxicity”.

For `Nc1ncnc2c1ncn2[C@@H]1O[C@H](COP(=O)(O)OP(=O)(O)O)[C@@H](O)[C@H]1O` [ADP], the “effect on misfolding of Aβ” value [4] is listed as “reduced misfolding of Aβ”.

For Aβ42, the “binding affinity of Aβ for HS” value [1] is given as “comparable affinities” and the “aggregation kinetics of Aβ42” value [5] is given as “faster aggregation kinetics”.

For amyloid beta [Aβ], the “oligomer relative to total Aβ” value [6] is given as ~ 63%, the “oligomer relative to total Aβ” value [7] is given as ~ 48% and the tumor growth [8] is given as “suppress tumor growth in mice”.

For biotinylated‐HN, the “binding of biotinylated-HN to Aβ versus HN” value [9] is listed as “indistinguishable”.
